Laboratory results as given in PubChem BioAssay (NCI).
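48-hour exposure; five concentrations; linearly interpolated endpoints. TGI: total growth inhibition.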

How the values were obtained:
Assay in all cases: NCI anticancer screen, dose series, 48 h
[1] = tested on: NCI-H226 lung
[2] = tested on: SN12C renal
[3] = tested on: OVCAR-5 ovarian
[4] = tested on: HCC-2998 colon
[5] = tested on: PC-3 prostate
[6] = tested on: A498 renal
[7] = tested on: MOLT-4 leukemia
[8] = tested on: K-562 leukemia
[9] = tested on: COLO 205 colon
[10] = tested on: SNB-19 CNS
[11] = tested on: OVCAR-4 ovarian
[12] = tested on: HL-60(TB) leukemia
[13] = tested on: SK-MEL-2 melanoma
[14] = tested on: OVCAR-3 ovarian
[15] = tested on: CAKI-1 renal
[16] = tested on: UO-31 renal
[17] = tested on: TK-10 renal
[18] = tested on: HCT-116 colon
[19] = tested on: IGROV1 ovarian
[20] = tested on: HCT-15 colon
[21] = tested on: MDA-MB-231 breast
[22] = tested on: MCF7 breast
[23] = tested on: HOP-62 NSCLC
[24] = tested on: RXF 393 renal
[25] = tested on: MDA-MB-435
[26] = tested on: SF-295 CNS
[27] = tested on: NCI-H460 lung
[28] = tested on: NCI-H522 lung
[29] = tested on: DU-145 prostate
[30] = tested on: SK-MEL-5 melanoma
[31] = tested on: UACC-257 melanoma
[32] = tested on: HS 578T breast
[33] = tested on: SNB-75 CNS
[34] = tested on: SF-539 CNS
[35] = tested on: NCI/ADR-RES ovarian
[36] = tested on: BT-549 breast
[37] = tested on: MDA-N
[38] = tested on: NCI-H23 lung
[39] = tested on: SR leukemia
[40] = tested on: SK-MEL-28 melanoma
[41] = tested on: HT29 colon
[42] = tested on: 786-0 renal
[43] = tested on: OVCAR-8 ovarian
[44] = tested on: ACHN renal
[45] = tested on: SW-620 colon
[46] = tested on: UACC-62 melanoma
[47] = tested on: KM12 colon
[48] = tested on: RPMI-8226 leukemia
[49] = tested on: SF-268 CNS
[50] = tested on: MALME-3M melanoma
[51] = tested on: EKVX NSCLC
[52] = tested on: U251 CNS
[53] = tested on: LOX IMVI melanoma

O=c1[nH]c2[nH]c(-c3ccc(Br)cc3)cc2c2ccccc12 was tested, and the TGI [1] was > 100 µM, the TGI [2] was > 100 µM and the TGI [3] was > 100 µM. The TGI [4] was > 100 µM, the TGI [5] was > 100 µM and the TGI [6] was > 100 µM. The TGI [7] was 26.9 µM, the TGI [8] was > 100 µM and the TGI [9] was > 100 µM. For the same compound, the TGI [10] was > 100 µM, the TGI [11] was > 100 µM and the TGI [12] was 28 µM. For the same compound, the TGI [13] was > 100 µM, the TGI [14] was > 100 µM and the TGI [15] was > 100 µM. For the same compound, the TGI [16] was > 100 µM, the TGI [17] was > 100 µM and the TGI [18] was > 100 µM. For the same compound, the TGI [19] was > 100 µM, the TGI [20] was > 100 µM and the TGI [21] was 44.6 µM. For the same compound, the TGI [22] was > 100 µM, the TGI [23] was 53.9 µM and the TGI [24] was 47.1 µM. For the same compound, the TGI [25] was > 100 µM, the TGI [26] was > 100 µM and the TGI [27] was > 100 µM. For the same compound, the TGI [28] was > 100 µM, the TGI [29] was > 100 µM and the TGI [30] was > 100 µM. For the same compound, the TGI [31] was > 100 µM, the TGI [32] was 38.5 µM and the TGI [33] was 37.1 µM. For the same compound, the TGI [34] was > 100 µM, the TGI [35] was > 100 µM and the TGI [36] was > 100 µM. For the same compound, the TGI [37] was > 100 µM, the TGI [38] was > 100 µM and the TGI [39] was 26.9 µM. For the same compound, the TGI [40] was > 100 µM, the TGI [41] was > 100 µM and the TGI [42] was > 100 µM. The TGI [43] was > 100 µM, the TGI [44] was > 100 µM and the TGI [45] was > 100 µM. For the same compound, the TGI [46] was > 100 µM, the TGI [47] was > 100 µM and the TGI [48] was > 100 µM. The TGI [49] was > 100 µM, the TGI [50] was > 100 µM and the TGI [51] was > 100 µM. For the same compound, the TGI [52] was 92.1 µM.
In the case of COc1ccc(Nc2nc3cc(C(F)(F)F)ccc3nc2C(=O)O)cc1, the TGI [1] is reported as 54.1 µM, the TGI [2] is reported as > 100 µM and the TGI [3] is reported as 60.6 µM. It also gave a TGI [4] of 31.9 µM, a TGI [5] of 57 µM and a TGI [6] of 35 µM. It also gave a TGI [7] of 28.6 µM, a TGI [8] of 44.4 µM and a TGI [9] of 46.7 µM. For the same compound, the TGI [10] was 72.2 µM, the TGI [11] was > 100 µM and the TGI [12] was 83.6 µM. The TGI [13] was 28 µM, the TGI [14] was 34.1 µM and the TGI [15] was > 100 µM. For the same compound, the TGI [16] was 26.5 µM, the TGI [17] was > 100 µM and the TGI [18] was 33.5 µM. For the same compound, the TGI [19] was 90.2 µM, the TGI [20] was 39 µM and the TGI [21] was > 100 µM. For the same compound, the TGI [22] was 51.7 µM, the TGI [23] was 30.4 µM and the TGI [24] was 26.8 µM. It also gave a TGI [25] of 48.1 µM, a TGI [26] of 35.7 µM and a TGI [27] of 53.3 µM. For the same compound, the TGI [28] was 30 µM, the TGI [29] was > 100 µM and the TGI [30] was 58.5 µM. For the same compound, the TGI [31] was 50.7 µM, the TGI [32] was 55.5 µM and the TGI [33] was 48.3 µM. For the same compound, the TGI [35] was 61 µM, the TGI [36] was 29.2 µM and the TGI [37] was > 100 µM. It also gave a TGI [38] of 30 µM, a TGI [39] of 34.1 µM and a TGI [53] of 40.8 µM. For the same compound, the TGI [40] was > 100 µM, the TGI [41] was > 100 µM and the TGI [42] was 43.9 µM. The TGI [43] was 46.7 µM, the TGI [44] was > 100 µM and the TGI [45] was 77.6 µM. The TGI [46] was 27.2 µM, the TGI [47] was 92.4 µM and the TGI [49] was 39.5 µM. The TGI [50] was 41.4 µM, the TGI [51] was 67.5 µM and the TGI [52] was 30.4 µM.
